Assay [1] deals with T1, hNav1.7 (Homo sapiens (Human), UniProt Q15858). Nature of the assay: Tritiated compound binding to membranes from cells heterologously expressing hNav1.7 and the β1 subunit (LBA). The settings on record: competitive binding vs [3H]compound, membranes with hNav1.7 and β1 subunit; read-out: Nav1.7 LBA EVO IC50. Here is the method:
Example 39A. Tritiated Compound Binding to Membranes Isolated from Cells that Heterologously Express hNav1.7 and the β1 Subunit
Preparation of membranes containing recombinantly expressed sodium channels: Frozen recombinant cell pellets were thawed on ice and diluted to 4 times the cell pellet weight with ice cold 50 mM Tris HCl, pH 7.4 buffer. The cell suspensions were homogenized on ice using a motorized glass dounce homogeniser. Homogenates were further diluted 8.4 times with ice cold 50 mM Tris HCl, pH 7.4 buffer and then centrifuged at 200×g at 4° C. for 15 min. The supernatants were collected and centrifuged at 10000×g at 4° C. for 50 min. The pellets were then re-suspended in 100 mM NaCl, 20 mM Tris HCl, pH 7.4 buffer containing 1% v/v protease inhibitors (Calbiochem) and re-homogenized on ice. The homogenized membranes were then processed through a syringe equipped with a 26 gauge needle. Protein concentrations were determined by Bradford Assay and the membranes were stored at −80° C.
Saturation experiments. A competitive NaV1.7 inhibitor having a methyl group was tritiated. Three tritiums were incorporated in place of methyl hydrogens to generate [^3H]compound. Binding of this radioligand was performed in 5 mL borosilicate glass test tubes at room temperature. Binding was initiated by adding membranes to increasing concentrations of [^3H]compound in 100 mM NaCl, 20 mM Tris HCl, pH 7.4 buffer containing 0.01% w/v bovine serum albumin (BSA) for 18 h. Non-specific binding was determined in the presence of 1 μM unlabeled compound. After 18 h, the reactants were filtered through GF/C glass fiber filters presoaked in 0.5% w/v polyethylene imine. Filters were washed with 15 mL ice cold 100 mM NaCl, 20 mM Tris HCl, pH7.4 buffer containing 0.25% BSA to separate bound from free ligand. [^3H]compound bound to filters was quantified by liquid scintillation counting.
Binding reactions were performed in 96-well polypropylene plates at room temperature for 18 h. In 360 μL, membranes were incubated with 100 pM [^3H]compound and increasing concentrations of Test Compound. Non-specific binding was defined in the presence of 1 μM unlabeled compound. Reactions were transferred and filtered through 96-well glass fiber/C filter plates presoaked with 0.5% polyethylene imine. The filtered reactions were washed 5 times with 200 μL ice cold buffer containing 0.25% BSA. Bound radioactivity was determined by liquid scintillation counting.
For saturation experiments, non-specific binding was subtracted from total binding to provide specific binding and these values were recalculated in terms of pmol ligand bound per mg protein. Saturation curves were constructed and dissociation constants were calculated using the single site ligand binding model: Beq=(Bmax*X)/(X+Kd), where Beq is the amount of ligand bound at equilibrium, Bmax is the maximum receptor density, Kd is the dissociation constant for the ligand, and X is the free ligand concentration. For competition studies percent inhibition was determined and IC50 values were calculated using a 4 parameter logistic model (% inhibition=(A+((B−A)/(1+((x/C)^D)))) using XLfit, where A and B are the maximal and minimum inhibition respectively, C is the IC50 concentration and D is the (Hill) slope.
Example 39B. Tritiated Compound Binding to Membranes Isolated from Cells that Heterologous Express hNav1.7 and the β1 Subunit
Following the procedure described in Example 39A, and making modifications as required to: centrifuge supernatants at 100000×g instead of 10000×g; re-suspend pellets in a buffer containing 0.01% BSA in addition to 100 mM NaCl, 20 mM Tris HCl, pH 7.4 buffer, and 1% v/v […]; and storing membranes at −80° C. in single use aliquots instead of pooled.
Saturation experiments: Following the procedure described in Example 243A, and making modifications as required to incubate [3H]compound for 3 hours instead of 18 hours. […]

For assay [2], the target named is T1, hNav1.7. The assay is described as follows: Electrophysiological assay (EP), voltage clamp on Syncropatch 384PE. In kind it is cell-based. Particulars: CHO cells expressing Nav1.7, holding potential −50 mV, 7.5 min compound incubation; read-out: EP_SP hNav1.7 EVO IC50. The source says: Example 39C. Electrophysiological Assay (EP) (In Vitro Assay)
Patch voltage clamp electrophysiology allows for the direct measurement and quantification of block of voltage-gated sodium channels (NaV's), and allows the determination of the time- and voltage-dependence of block which has been interpreted as differential binding to the resting, open, and inactivated states of the sodium channel (Hille, B., Journal of General Physiology (1977), 69: 497-515).
The following voltage clamp electrophysiology studies were performed on representative compounds using cells heterologously expressing Nav1.7 or Nav1.5 channels. cDNAs for Nav1.7 (NM_002977) and Nav1.5 (AC137587) were stably expressed in Chinese Hamstr Ovary (CHO) cells and CHL (Chinese Hamster Lung) cells respectively. Sodium currents were measured in the whole-cell configuration using Syncropatch 384PE (Nanlon Technologies, Germany). 1NPC®-384 chips with custom medium resistance and single hole mode are used. Internal solution consists of (in mM): 110 […], 10 CsCl, 20 EGTA, and 10 Hepes (pH adjusted to 7.2); and external solution contains (in mM): 60 NMDG, 80 NaCl, 4 KCl, 1 MgCl2, 2 CaCl2, 2 D-Glucose monohydrate, 10 Hepes (pH adjusted to 7.4 with NaOH).
After system flushing, testing compounds are dissolved in external solution containing 0.1% Pluronic F-127. The chip is moved into the measuring head and the instrument primes the chip with external and internal solutions. 10 l cells are added to the chip from a cell hotel, and a negative pressure of −50 mBar is applied to form a seal. Following treatment with seal enhancer solution and wash-off with external solution, negative pressure of −250 mbar is applied for 1 second to achieve the whole-cell configuration, followed by three washing steps in external solution. 20 µl of compounds is added to 40 µl in each well (1:3 dilution of compounds), and after mixing, 20 l is removed so the volume is retained at 40 ul. After approximately 13 minutes recordings, 20 µl/well of 2 uM TTX, or 333 uM Tetracaine (for Nav1.5) is added to achieve full block.
For voltage protocol, an holding potential of −50 mV is applied during the whole experiment. A depolarizing step is applied to −10 mV for 10 ms, followed by a hyperpolarization step to −150 mV for 20 ms to allow channel recovery from inactivation. A second depolarizing step is applied from −150 mV to −10 mV for 10 ms, where currents were measured to derive blocking effects of compounds. Inhibition is determined based on 7.5 min of compound incubation.

Turning to `COc1cc(-c2cccc(OC(F)(F)F)c2)c(F)cc1N1C(=O)CO[C@@H]2CN(S(=O)(=O)Nc3ccon3)CC[C@H]21` [Example 29, (4aR,8aR)-1-(2-fluoro-5-methoxy-3′-(trifluoromethoxy)-[1,1′-biphenyl]-4-yl)-N-(isoxazol-3-yl)-2-oxohexahydro-1H-pyrido[3,4-b][1,4]oxazine-6(7H)-sulfonamide], the figures for the IC50 in assay [1] and in assay [2] were 62.3 nM and 2.21 nM, respectively.
For `COc1cc(-c2cccc(C(F)F)c2)c(F)cc1N1C(=O)CO[C@H]2CN(S(=O)(=O)Nc3ccon3)CC[C@@H]21` [Example 16, (4aS,8aS)-1-(3′-(difluoromethyl)-2-fluoro-5-methoxy-[1,1′-biphenyl]-4-yl)-N-(isoxazol-3-yl)-2-oxohexahydro-1H-pyrido[3,4-b][1,4]oxazine-6(7H)-sulfonamide], in that order: 1390 nM and 49.5 nM.
On to `COc1cc(-c2cccc(C(F)(F)F)c2)cc(F)c1N1C(=O)CO[C@H]2CN(S(=O)(=O)Nc3ccon3)CC[C@@H]21` [Example 20, (4aS,8aS)-1-(3-fluoro-5-methoxy-3′-(trifluoromethyl)-[1,1′-biphenyl]-4-yl)-N-(isoxazol-3-yl)-2-oxohexahydro-1H-pyrido[3,4-b][1,4]oxazine-6(7H)-sulfonamidede], for which the IC50 amounted to 2000 nM in assay [1] and 39.8 nM in assay [2].
For `COc1cc(-c2cccc(F)c2)c(F)cc1N1C(=O)CO[C@@H]2CN(S(=O)(=O)Nc3ccon3)CC[C@H]21` [Example 9, (4aR,8aR)-1-(2,3′-difluoro-5-methoxy-[1,1′-biphenyl]-4-yl)-N-(isoxazol-3-yl)-2-oxohexahydro-1H-pyrido[3,4-b][1,4]oxazine-6(7H)-sulfonamide], in that order: 2000 nM and 19.4 nM.
For the compound `COc1cc(-c2cccc(C(F)(F)F)c2)c(F)cc1N1C(=O)CC[C@@H]2CN(S(=O)(=O)Nc3ccon3)CC[C@H]21` [Example 35, (4aR,8aR)-1-(2-fluoro-5-methoxy-3′-(trifluoromethyl)-[1,1′-biphenyl]-4-yl)-N-(isoxazol-3-yl)-2-oxooctahydro-1,6-naphthyridine-6(2H)-sulfonamide], the IC50 in assay [1] was 49.3 nM; in assay [2], 2.88 nM.
Take `COc1cc(-c2cccc(OC(F)(F)F)c2)c(F)cc1N1CCO[C@H]2CN(S(=O)(=O)Nc3ccon3)CC[C@@H]21` [Example 32, (4aS,8aS)-1-(2-fluoro-5-methoxy-3′-(trifluoromethoxy)-[1,1′-biphenyl]-4-yl)-N-(isoxazol-3-yl)hexahydro-1H-pyrido[3,4-b][1,4]oxazine-6(7H)-sulfonamide]: the IC50 in assay [1] stood at 148 nM; in assay [2], 10.9 nM.
On the same counts, the results for `COc1cc(-c2cc(F)cc(C(F)(F)F)c2)c(F)cc1N1C(=O)CO[C@H]2CN(S(=O)(=O)Nc3ccon3)CC[C@@H]21` [Example 6, (4aS,8aS)-1-(2,3′-difluoro-5-methoxy-5′-(trifluoromethyl)-[1,1′-biphenyl]-4-yl)-N-(isoxazol-3-yl)-2-oxohexahydro-1H-pyrido[3,4-b][1,4]oxazine-6(7H)-sulfonamide] are 52.9 nM and 1.84 nM.
On the same counts, the results for `COc1cc(-c2cc(F)cc(C(F)(F)F)c2)c(F)cc1N1C(=O)CO[C@@H]2CN(S(=O)(=O)Nc3ccon3)CC[C@H]21` [Example 5, (4aR,8aR)-1-(2,3′-difluoro-5-methoxy-5′-(trifluoromethyl)-[1,1′-biphenyl]-4-yl)-N-(isoxazol-3-yl)-2-oxohexahydro-1H-pyrido[3,4-b][1,4]oxazine-6(7H)-sulfonamide] are 79 nM and 2.79 nM.
On the same counts, the results for `COc1cc(-c2cccc(F)c2)c(F)cc1N1C(=O)CO[C@H]2CN(S(=O)(=O)Nc3ccon3)CC[C@@H]21` [Example 10, (4aS,8aS)-1-(2,3′-difluoro-5-methoxy-[1,1′-biphenyl]-4-yl)-N-(isoxazol-3-yl)-2-oxohexahydro-1H-pyrido[3,4-b][1,4]oxazine-6(7H)-sulfonamide] are 716 nM and 47.8 nM.

(Values after patent publication US10947251B2, “Therapeutic compounds and methods of use thereof” (GENENTECH, INC., priority 2018, dated 2021).)
